According to patent US11919902B2, “Aryl-bipyridine amine derivatives as phosphatidylinositol phosphate kinase inhibitors” (HiberCell, Inc., priority 2017, dated 2024):

Experiments:
[1] = molecular target: T1, PIP4K2A (full length protein, SignalChem) (Homo sapiens, UniProt P48426); test: Kinase Assay PIP4K2 A (Sprint); ADP-Glo biochemical assay; settings: Table 2; compounds listed under IC50 range headings
T1 construct: 4 nM PIP4K2A (full length protein, SignalChem); purchased SignalChem
T1 sequence (P48426 1-406): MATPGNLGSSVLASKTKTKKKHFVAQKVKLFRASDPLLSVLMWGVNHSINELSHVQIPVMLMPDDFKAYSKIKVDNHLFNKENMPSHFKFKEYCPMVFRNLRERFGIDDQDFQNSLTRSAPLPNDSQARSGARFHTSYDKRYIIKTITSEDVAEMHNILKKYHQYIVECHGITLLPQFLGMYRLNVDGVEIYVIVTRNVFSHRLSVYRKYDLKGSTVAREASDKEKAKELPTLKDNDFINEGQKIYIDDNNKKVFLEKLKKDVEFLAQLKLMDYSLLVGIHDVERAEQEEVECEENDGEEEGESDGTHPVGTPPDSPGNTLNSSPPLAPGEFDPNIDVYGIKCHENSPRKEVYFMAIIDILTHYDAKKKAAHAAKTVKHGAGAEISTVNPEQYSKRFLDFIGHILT
Method in brief: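 Compounds (10-point, 3-fold dilutions) were pre-incubated 15 min at RT with an enzyme/substrate mix of 4 nM full-length PIP4K2A and 100 μM PI(5)P diC8 in 20 mM MOPS pH 7.2, 25 mM MgCl2, 0.005% Tween 20. A 60 μM ATP solution was added, reaction 1 h RT; ADP read by ADP-Glo luminescence, IC50 fitted from % inhibition vs DMSO.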

GST tagged PIP4KtypeIIA = molecular target: T2, GST tagged PIP4KtypeIIA (Homo sapiens, UniProt P48426); test: ADP-glo kinase assay PIP4K 2A (PIP4KtypeIIA inhibition assay); type: biochemical; settings: Table 3; compounds listed under IC50 range headings; 10 uM ATP, 0.5 nM PIP4KIIA
T2 construct: made in house; host or cells: E. coli
T2 sequence (P48426 1-406): T1 sequence (P48426 1-406)
Method in brief: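 E. coli-expressed GST-PIP4KtypeIIA (0.5 nM final) was preincubated 1 h at 27 °C with compound (up to 4.8 μM, 5% DMSO) in PI5P/DOPE lipid in 50 mM HEPES pH 7.3 with 10 mM MgCl2. The reaction was started with 10 μM ATP (final) and run 1 h. ADP was read by ADP-Glo luminescence via a calibration curve, and IC50 was taken from % residual activity.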

GST tagged PIP4KtypeIIB = molecular target: T3, GST tagged PIP4KtypeIIB (Homo sapiens, UniProt P78356); test: Trans-FI P kinase assay PIP4K2B (PIP4KtypeIIB inhibition assay); type: biochemical; settings: Table 4; compounds listed under IC50 range headings; 100 uM GTP, 5 nM PIP4KIIB; read-out: Trans-FI P kinase assays: PIP4K2B IC50
T3 construct: made in house; host or cells: E. coli
T3 sequence (P78356 1-416): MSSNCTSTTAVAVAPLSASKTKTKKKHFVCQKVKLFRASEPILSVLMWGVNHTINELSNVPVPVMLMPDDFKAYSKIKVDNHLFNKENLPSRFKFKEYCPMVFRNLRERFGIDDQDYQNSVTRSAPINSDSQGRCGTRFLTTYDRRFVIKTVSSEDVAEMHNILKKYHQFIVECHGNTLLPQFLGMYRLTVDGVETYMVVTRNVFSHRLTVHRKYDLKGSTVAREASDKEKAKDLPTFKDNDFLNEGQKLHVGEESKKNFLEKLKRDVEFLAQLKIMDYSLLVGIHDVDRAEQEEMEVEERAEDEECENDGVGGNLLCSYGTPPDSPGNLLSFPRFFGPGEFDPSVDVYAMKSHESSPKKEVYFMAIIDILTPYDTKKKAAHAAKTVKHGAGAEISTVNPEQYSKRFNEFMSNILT
Method in brief: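 Purified GST-PIP4KIIB (5 nM final), 1 h preincubation with compound at 27 C, then 2 h reaction with 100 uM GTP and 80 uM PI5P plus DOPE carrier lipid in pH 7.3 HEPES/MgCl2/Triton buffer with 5% DMSO. GDP read by Transcreener FI fluorescence against a calibration curve; IC50 from % no-inhibitor activity vs log concentration.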

IC50 [1]	IC50 (GST tagged PIP4KtypeIIA)	IC50 (GST tagged PIP4KtypeIIB)	SMILES
0.005 to 0.1 µM	0.1 to 1 µM	0.1 to 1 µM	CC(O)c1cnc2[nH]cc(-c3cncc(-c4ccc(C(=O)N(C)C)cc4)c3)c2c1 (stereo not drawn) [Example 15, 4-(5-(5-(1-hydroxyethyl)-1H-pyrrolo[2,3-b]pyridin-3-yl)pyridin-3-yl)-N,N-dimethylbenzamide]
1 to 2.5 µM	> 5 µM	> 5 µM	O=C1CCCN1c1ccc(-c2cncc(-c3ccncc3)c2)cc1 [Example 41, 1-[4-[5-(4-Pyridyl)-3-pyridyl]phenyl]pyrrolidin-2-one]
0.1 to 1 µM	1 to 2.5 µM	> 5 µM	CN(C)C(=O)c1ccc(-c2cc(-c3cnc4c(c3)c(-c3cccnc3)nn4C)cnc2N)nc1 [Example 123, 2′-amino-N,N-dimethyl-5′-(1-methyl-3-(pyridin-3-yl)-1H-pyrazolo[3,4-b]pyridin-5-yl)-[2,3′-bipyridine]-5-carboxamide]
0.005 to 0.1 µM	0.1 to 1 µM	0.01 to 0.1 µM	CN1CCn2c(cc3c(-c4cncc(-c5ccc(N6CCCC6=O)cc5)c4)ccnc32)C1=O [Example 46, 7-methyl-4-(5-(4-(2-oxopyrrolidin-1-yl)phenyl)pyridin-3-yl)-8,9-dihydropyrido[3′,2′:4,5]pyrrolo[1,2-a]pyrazin-6(7H)-one]
0.1 to 1 µM	0.1 to 1 µM	0.1 to 1 µM	CN(C)C(=O)c1ccc(-c2cncc(-c3ccnc4[nH]ccc34)c2)cc1 [Example 2, 4-(5-(1H-pyrrolo[2,3-b]pyridin-4-yl)pyridin-3-yl)-N,N-dimethylbenzamide]
0.1 to 1 µM	1 to 2.5 µM	0.1 to 1 µM	CCOc1cnc2[nH]ccc2c1-c1cncc(-c2ccc(N3CCCC3=O)cc2)c1 [Example 59, 1-(4-(5-(5-ethoxy-1H-pyrrolo[2,3-b]pyridin-4-yl)pyridin-3-yl)phenyl)pyrrolidin-2-one]
0.1 to 1 µM	1 to 2.5 µM	1 to 2.5 µM	Nc1ncc(-c2cccc3ncsc23)cc1-c1ccc(N2CCCC2=O)cn1 [Example 24, 1-(2′-amino-5′-(benzo[d]thiazol-7-yl)-[2,3′-bipyridin]-5-yl)pyrrolidin-2-one]
0.005 to 0.1 µM	0.01 to 0.1 µM	0.01 to 0.1 µM	COC(=O)c1cc2c(-c3cncc(-c4ccc(N5CCCC5=O)cc4)c3)ccnc2[nH]1 [Example 302, methyl 4-(5-(4-(2-oxopyrrolidin-1-yl)phenyl)pyridin-3-yl)-1H-pyrrolo[2,3-b]pyridine-2-carboxylate]
1 to 2.5 µM	2.5 to 5 µM	1 to 2.5 µM	CN(C)C(=O)c1ccc(-c2cc(-c3ccnc4cc(C#N)ccc34)cnc2N)nc1 [Example 109, 2′-amino-5′-(7-cyanoquinolin-4-yl)-N,N-dimethyl-[2,3′-bipyridine]-5-carboxamide]
0.1 to 1 µM	0.1 to 1 µM	0.1 to 1 µM	CN(C)C(=O)c1ccc(-c2cc(-c3ccnc4[nH]ccc34)cnc2N)nc1 [Example 21, 2′-amino-N,N-dimethyl-5′-(1H-pyrrolo[2,3-b]pyridin-4-yl)-[2,3′-bipyridine]-5-carboxamide]
0.1 to 1 µM	0.1 to 1 µM	0.01 to 0.1 µM	CN(C)C(=O)c1ccc(-c2cc(-c3ccnc4[nH]c(C(=O)NCC(F)(F)F)cc34)cnc2N)nc1 [Example 138, 4-(2′-amino-5-(dimethylcarbamoyl)-[2,3′-bipyridin]-5′-yl)-N-(2,2,2-trifluoroethyl)-1H-pyrrolo[2,3-b]pyridine-2-carboxamide]
0.1 to 1 µM	0.1 to 1 µM	0.01 to 0.1 µM	CN1CCn2c(cc3c(-c4cncc(-c5ccc(C(=O)N6CCCCC6)cc5)c4)ccnc32)C1=O [Example 354, 7-methyl-4-(5-(4-(piperidine-1-carbonyl)phenyl)pyridin-3-yl)-8,9-dihydropyrido[3′,2′:4,5]pyrrolo[1,2-a]pyrazin-6(7H)-one]
0.1 to 1 µM	2.5 to 5 µM	1 to 2.5 µM	O=C1CCCN1c1ccc(-c2cncc(-c3ccnc4c3OCCO4)c2)cc1 [Example 40, 1-[4-[5-(2,3-Dihydro-[1,4]dioxino[2,3-b]pyridin-8-yl)-3-pyridyl]phenyl]pyrrolidin-2-one]
